Target: T1, […]F508-CFTR (Homo sapiens, UniProt P13569, DEL508-508)
T1 construct: expressed in transfected cells
Assay: Assay results of Table 3: ΔF508-CFTR modulation, membrane potential optical assay (assay format not stated)
Type: cell-based
Details: NIH3T3 mouse fibroblasts stably expressing […]F508-CFTR (optical assays); for Efficacy: efficacy range; for EC50: potency range
Method in brief: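 Two VIPR II FRET voltage-dye formats in ΔF508-CFTR NIH3T3 cells yield EC50 and efficacy. Potentiator mode: 27° C.-corrected cells get compound in Cl⁻-free medium, forskolin 2-10 μM after 22 s (final Cl⁻ 28 mM). Corrector mode: compound 16 h at 37° C., activation with forskolin 10 μM plus genistein 20 μM.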

T1 sequence (P13569 with tags, fused parts or gaps DEL508-508): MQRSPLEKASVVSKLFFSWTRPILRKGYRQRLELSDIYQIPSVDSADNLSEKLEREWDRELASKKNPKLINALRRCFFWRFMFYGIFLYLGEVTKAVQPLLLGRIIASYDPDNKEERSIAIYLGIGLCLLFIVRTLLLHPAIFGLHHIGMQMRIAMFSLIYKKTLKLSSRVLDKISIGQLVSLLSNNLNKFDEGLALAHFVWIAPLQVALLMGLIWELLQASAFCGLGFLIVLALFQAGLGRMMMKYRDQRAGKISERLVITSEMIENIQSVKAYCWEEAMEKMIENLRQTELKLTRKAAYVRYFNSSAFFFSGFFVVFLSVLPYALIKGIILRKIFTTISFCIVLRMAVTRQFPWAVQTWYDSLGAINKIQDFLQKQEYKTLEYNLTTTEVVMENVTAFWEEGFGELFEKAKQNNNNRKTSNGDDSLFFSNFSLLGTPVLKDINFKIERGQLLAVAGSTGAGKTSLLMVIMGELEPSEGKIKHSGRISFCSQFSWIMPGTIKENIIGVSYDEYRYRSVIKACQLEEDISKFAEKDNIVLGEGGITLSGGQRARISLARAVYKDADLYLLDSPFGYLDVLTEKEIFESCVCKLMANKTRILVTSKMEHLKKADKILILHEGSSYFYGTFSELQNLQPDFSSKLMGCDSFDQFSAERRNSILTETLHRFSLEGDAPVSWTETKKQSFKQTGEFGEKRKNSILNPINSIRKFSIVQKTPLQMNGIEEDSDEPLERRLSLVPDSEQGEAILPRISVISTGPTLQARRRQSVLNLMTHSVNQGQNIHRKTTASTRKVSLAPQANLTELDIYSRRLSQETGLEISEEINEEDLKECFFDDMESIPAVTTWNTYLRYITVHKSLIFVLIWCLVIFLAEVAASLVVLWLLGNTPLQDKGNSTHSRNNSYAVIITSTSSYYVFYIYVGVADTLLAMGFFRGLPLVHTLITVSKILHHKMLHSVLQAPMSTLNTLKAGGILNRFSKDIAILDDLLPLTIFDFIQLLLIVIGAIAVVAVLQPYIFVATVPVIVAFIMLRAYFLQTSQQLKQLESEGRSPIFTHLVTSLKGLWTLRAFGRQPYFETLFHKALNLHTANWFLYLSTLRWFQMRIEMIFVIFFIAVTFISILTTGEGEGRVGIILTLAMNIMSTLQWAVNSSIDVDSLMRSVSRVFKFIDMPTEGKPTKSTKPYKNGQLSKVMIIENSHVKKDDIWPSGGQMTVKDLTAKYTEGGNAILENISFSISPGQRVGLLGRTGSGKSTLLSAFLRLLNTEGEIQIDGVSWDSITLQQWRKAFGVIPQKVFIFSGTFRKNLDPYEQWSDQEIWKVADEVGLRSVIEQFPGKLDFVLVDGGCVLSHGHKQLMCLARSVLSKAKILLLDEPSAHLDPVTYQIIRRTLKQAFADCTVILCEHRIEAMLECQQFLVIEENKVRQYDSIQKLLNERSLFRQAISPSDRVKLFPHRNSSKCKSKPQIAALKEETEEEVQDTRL

EC50 [µM] | Compound | Efficacy
> 5 | COc1ccc(-c2cc(C(N)=O)nc(N3CCCCC3)n2)c(OC)c1 [Compound 65] | ++ (++ corresponds to Efficacy between 100 and 50)
1 to 5 | CCCN(CC1CC1)c1nc(C(N)=O)cc(-c2cccc(OC)c2)n1 [Compound 89] | +++ (+++ corresponds to Efficacy greater than 100)
> 5 | CN(C)c1nc(C(N)=O)cc(-c2ccccc2)n1 [Compound 9] | ++ (++ corresponds to Efficacy between 100 and 50)
> 5 | CCN(CC)c1nc(C(=O)NCc2ccccc2)cc(-c2ccccc2)n1 [Compound 97] | ++ (++ corresponds to Efficacy between 100 and 50)
> 5 | CC(C)c1ccc(-c2cc(C(N)=O)nc(N3CCCCC3)n2)cc1 [Compound 166] | + (+ corresponds to Efficacy less than 50)
1 to 5 | CCCN(CC1CC1)c1nc(C(N)=O)cc(-c2ccccc2)n1 [Compound 87] | ++ (++ corresponds to Efficacy between 100 and 50)
> 5 | NC(=O)c1cc(-c2ccccc2)nc(N2CCC(C(=O)c3ccc(Cl)cc3)CC2)n1 [Compound 28] | ++ (++ corresponds to Efficacy between 100 and 50)
1 to 5 | CCN(CC)c1nc(C(N)=O)cc(-c2cccc(OC)c2)n1 [Compound 74] | +++ (+++ corresponds to Efficacy greater than 100)
> 5 | COc1ccc(-c2cc(C(N)=O)nc(N(C)C)n2)cc1 [Compound 31] | + (+ corresponds to Efficacy less than 50)
> 5 | CC(C)CNc1nc(C(N)=O)cc(-c2ccccc2)n1 [Compound 51] | ++ (++ corresponds to Efficacy between 100 and 50)
> 5 | C=CCNc1nc(C(N)=O)cc(-c2ccc(OC)cc2)n1 [Compound 220] | + (+ corresponds to Efficacy less than 50)
> 5 | Cc1cccc(-c2cc(C(N)=O)nc(N3CCCCC3)n2)c1 [Compound 32] | ++ (++ corresponds to Efficacy between 100 and 50)
< 1 | CCN(CC)c1nc(C(N)=O)cc(-c2ccccc2)n1 [Compound 119] | +++ (+++ corresponds to Efficacy greater than 100)
> 5 | CCCNc1nc(C(N)=O)cc(-c2ccccc2)n1 [Compound 30] | ++ (++ corresponds to Efficacy between 100 and 50)
< 1 | CCN(CC)c1nc(C(N)=O)cc(-c2ccc(Cl)cc2Cl)n1 [Compound 200] | ++ (++ corresponds to Efficacy between 100 and 50)
> 5 | COc1ccccc1-c1cc(C(N)=O)nc(N(CCO)CCO)n1 [Compound 90] | + (+ corresponds to Efficacy less than 50)
1 to 5 | NC(=O)c1cc(-c2cccc(Cl)c2Cl)nc(N2CCCCC2)n1 [Compound 95] | ++ (++ corresponds to Efficacy between 100 and 50)
1 to 5 | CC(=O)C1(c2ccccc2)CCN(c2nc(C(N)=O)cc(-c3ccccc3)n2)CC1 [Compound 45] | ++ (++ corresponds to Efficacy between 100 and 50)
> 5 | CNc1nc(C(N)=O)cc(-c2cccc(OC)c2)n1 [Compound 231] | ++ (++ corresponds to Efficacy between 100 and 50)
< 1 | CCN(CC)c1nc(C(N)=O)cc(-c2cc(Cl)ccc2Cl)n1 [Compound 225] | +++ (+++ corresponds to Efficacy greater than 100)
> 5 | COc1cccc(-c2cc(C(N)=O)nc(NCC3CCCO3)n2)c1 (centres unmarked) [Compound 80] | + (+ corresponds to Efficacy less than 50)
> 5 | NC(=O)c1cc(-c2ccccc2)nc(CC2CCCCC2)n1 [Compound 136] | ++ (++ corresponds to Efficacy between 100 and 50)

EC50 [µM] | Compound | Efficacy
1 to 5 | CC1CC(C)CN(c2nc(C(N)=O)cc(-c3ccccc3)n2)C1 (centres unmarked) [Compound 113] | ++ (++ corresponds to Efficacy between 100 and 50)
1 to 5 | NC(=O)c1cc(-c2ccc(OC(F)(F)F)cc2)nc(N2CCCCC2)n1 [Compound 182] | + (+ corresponds to Efficacy less than 50)
> 5 | NC(=O)c1cc(-c2ccccc2)nc(N2CCC(O)(c3cccc(C(F)(F)F)c3)CC2)n1 [Compound 96] | ++ (++ corresponds to Efficacy between 100 and 50)
1 to 5 | CCOc1ccc(-c2cc(C(N)=O)nc(N3CCCCC3)n2)cc1 [Compound 198] | + (+ corresponds to Efficacy less than 50)
1 to 5 | NC(=O)c1cc(-c2ccccc2)nc(N2CCC3CCCCC3C2)n1 (centres unmarked) [Compound 148] | ++ (++ corresponds to Efficacy between 100 and 50)
> 5 | COc1ccc(-c2cc(C(N)=O)nc(NCc3ccco3)n2)cc1 [Compound 176] | ++ (++ corresponds to Efficacy between 100 and 50)
< 1 | CCN(CC)c1nc(C(N)=O)cc(-c2cccc(Cl)c2)n1 [Compound 98] | +++ (+++ corresponds to Efficacy greater than 100)
1 to 5 | CCN(CC)c1nc(C(N)=O)cc(-c2ccc(C)cc2)n1 [Compound 230] | +++ (+++ corresponds to Efficacy greater than 100)
1 to 5 | CCCN(CCC)c1nc(C(N)=O)cc(-c2ccccc2)n1 [Compound 23] | ++ (++ corresponds to Efficacy between 100 and 50)
< 1 | CCCCN(CCCC)c1nc(C(N)=O)cc(-c2ccccc2)n1 [Compound 171] | ++ (++ corresponds to Efficacy between 100 and 50)
> 5 | CCN(CC)c1nc(C(N)=O)cc(-c2ccc(C(F)(F)F)cc2)n1 [Compound 10] | ++ (++ corresponds to Efficacy between 100 and 50)
1 to 5 | CCN(CC)c1nc(C(N)=O)cc(-c2ccc(C)c(C)c2)n1 [Compound 207] | +++ (+++ corresponds to Efficacy greater than 100)
> 5 | CCN(CCO)c1nc(C(=O)NC)cc(-c2ccccc2)n1 [Compound 156] | + (+ corresponds to Efficacy less than 50)
< 1 | CCN(CC)c1nc(C(N)=O)cc(-c2cc(Cl)ccc2OC)n1 [Compound 12] | ++ (++ corresponds to Efficacy between 100 and 50)
1 to 5 | COc1ccccc1-c1cc(C(N)=O)nc(NCC2CCCO2)n1 (centres unmarked) [Compound 193] | +++ (+++ corresponds to Efficacy greater than 100)
> 5 | CCNc1nc(C(N)=O)cc(-c2cccc(OC)c2)n1 [Compound 138] | ++ (++ corresponds to Efficacy between 100 and 50)
1 to 5 | NC(=O)c1cc(-c2ccccc2)nc(N2CC=CC2)n1 [Compound 79] | +++ (+++ corresponds to Efficacy greater than 100)
< 1 | C=C(C)CN(CC)c1nc(C(N)=O)cc(-c2ccccc2)n1 [Compound 188] | +++ (+++ corresponds to Efficacy greater than 100)
> 5 | CC(C)(C)Nc1nc(C(N)=O)cc(-c2ccccc2)n1 [Compound 71] | ++ (++ corresponds to Efficacy between 100 and 50)
1 to 5 | NC(=O)c1cc(-c2cc3ccccc3s2)nc(N2CCCCC2)n1 [Compound 170] | + (+ corresponds to Efficacy less than 50)
1 to 5 | Cc1csc(-c2cc(C(N)=O)nc(N3CCCCC3)n2)c1 [Compound 70] | + (+ corresponds to Efficacy less than 50)
